Laboratory results: patent US20260124214A1, “HETEROCYCLIC COMPOUNDS FOR USE IN THE TREATMENT OF CANCER” (ARTIOS PHARMA LIMITED, priority 2021, published 2026)
Structures can show the parent of a compound that is named as a salt.

What follows are molecules tested against T1, Human Polθ polymerase domain (aa1820-2590) (Homo sapiens, UniProt O75417) (assay: Polθ Polymerase Domain WT KI Assay (PicoGreen)). Conditions: 100 nM DNA substrate, 0.156 nM Polθ, initial rates vs inhibitor concentration.
T1 construct: Human Polθ polymerase domain (aa1820-2590) was expressed in E. Coli; made in house; host or cells: E. coli
T1 sequence (O75417 1820-2590): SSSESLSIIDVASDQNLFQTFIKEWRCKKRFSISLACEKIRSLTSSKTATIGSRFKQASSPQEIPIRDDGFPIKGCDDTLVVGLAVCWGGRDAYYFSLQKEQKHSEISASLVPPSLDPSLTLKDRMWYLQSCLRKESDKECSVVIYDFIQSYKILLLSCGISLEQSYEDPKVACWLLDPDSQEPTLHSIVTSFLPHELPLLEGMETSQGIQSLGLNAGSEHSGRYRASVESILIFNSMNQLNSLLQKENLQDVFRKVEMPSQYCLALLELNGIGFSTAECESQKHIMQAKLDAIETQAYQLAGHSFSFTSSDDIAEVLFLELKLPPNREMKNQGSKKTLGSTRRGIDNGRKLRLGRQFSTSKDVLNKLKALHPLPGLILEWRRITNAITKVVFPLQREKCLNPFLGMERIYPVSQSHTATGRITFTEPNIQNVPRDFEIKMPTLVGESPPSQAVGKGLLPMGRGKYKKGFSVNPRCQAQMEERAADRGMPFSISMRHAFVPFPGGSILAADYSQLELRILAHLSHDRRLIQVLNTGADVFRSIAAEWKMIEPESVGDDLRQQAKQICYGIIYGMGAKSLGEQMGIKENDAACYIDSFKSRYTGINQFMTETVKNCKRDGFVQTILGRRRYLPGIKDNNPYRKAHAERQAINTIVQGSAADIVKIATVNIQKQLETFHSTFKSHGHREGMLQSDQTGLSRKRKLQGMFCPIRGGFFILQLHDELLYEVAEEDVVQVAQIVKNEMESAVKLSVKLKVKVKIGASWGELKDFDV
Type: biochemical
Method in brief: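 E. coli-expressed human Polθ polymerase domain (aa1820-2590) on annealed DNA II Short/Long primer-template (1.2:1), in 25 mM Tris pH 7.5, NaCl, 5% glycerol, 0.01% Triton X-100, 0.1 mg/ml BSA, 1 mM DTT, 1% DMSO. EDTA-quenched timepoints to 180 min, PicoGreen fluorescence. Initial rates vs inhibitor concentration fitted four-parameter for KI.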

SMILES | Ki [nM]
Cc1cc(C(F)(F)F)cc(N2C(=O)C[C@@H]3CN(CCO)c4c(F)cccc4N(C)C(=O)[C@H]32)n1 [Example 18, (3aR,11aS)-6-Fluoro-5-(2-hydroxyethyl)-10-methyl-1-(6-methyl-4-(trifluoromethyl)pyridin-2-yl)-1,3a,4,5,10,11a-hexahydro-2H-benzo[b]pyrrolo[2,3-f][1,4]diazocine-2,11(3H)-dione] | 16.7
CCN(CC)CCN1C[C@H]2CC(=O)N(c3cc(C(F)(F)F)cc(C)n3)[C@@H]2C(=O)N(C)c2cccc(Cl)c21 [Example 21, (3aR,11aS)-6-Chloro-5-(2-(diethylamino)ethyl)-10-methyl-1-(6-methyl-4-(trifluoromethyl)pyridin-2-yl)-1,3a,4,5,10,11a-hexahydro-2H-benzo[b]pyrrolo[2,3-f][1,4]diazocine-2,11(3H)-dione] | 9.94
Cc1cc(C(F)(F)F)cc(N2C(=O)C[C@@H]3CN(CCN4CCC(F)(F)CC4)c4c(Cl)cccc4N(C)C(=O)[C@H]32)n1 [Example 22, (3aR,11aS)-6-Chloro-5-(2-(4,4-difluoropiperidin-1-yl)ethyl)-10-methyl-1-(6-methyl-4-(trifluoromethyl)pyridin-2-yl)-1,3a,4,5,10,11a-hexahydro-2H-benzo[b]pyrrolo[2,3-f][1,4]diazocine-2,11(3H)-dione] | 1.79
Cc1cc(C(F)(F)F)cc(N2C(=O)C[C@@H]3CN(CCN4CCOC[C@H]4C)c4c(Cl)cccc4N(C)C(=O)[C@H]32)n1 [Example 24, (3aR,11aS)-6-Chloro-10-methyl-1-(6-methyl-4-(trifluoromethyl)pyridin-2-yl)-5-(2-((R)-3-methylmorpholino)ethyl)-1,3a,4,5,10,11a-hexahydro-2H-benzo[b]pyrrolo[2,3-f][1,4]diazocine-2,11(3H)-dione] | 1.78
Cc1cc(C(F)(F)F)cc(N2C(=O)C[C@@H]3CN(CCN4CCOC[C@@H]4C)c4c(Cl)cccc4N(C)C(=O)[C@H]32)n1 [Example 25, (3aR,11aS)-6-Chloro-10-methyl-1-(6-methyl-4-(trifluoromethyl)pyridin-2-yl)-5-(2-((S)-3-methylmorpholino)ethyl)-1,3a,4,5,10,11a-hexahydro-2H-benzo[b]pyrrolo[2,3-f][1,4]diazocine-2,11(3H)-dione] | 0.711
Cc1cc(C(F)(F)F)cc(N2C(=O)C[C@@H]3CN(CCN4CCN(CCF)CC4)c4c(Cl)cccc4N(C)C(=O)[C@H]32)n1 [Example 26, (3aR,11aS)-6-Chloro-5-(2-(4-(2-fluoroethyl)piperazin-1-yl)ethyl)-10-methyl-1-(6-methyl-4-(trifluoromethyl)pyridin-2-yl)-1,3a,4,5,10,11a-hexahydro-2H-benzo[b]pyrrolo[2,3-f][1,4]diazocine-2,11(3H)-dione] | 2.72
COCCN1CCN(CCN2C[C@H]3CC(=O)N(c4cc(C(F)(F)F)cc(C)n4)[C@@H]3C(=O)N(C)c3cccc(Cl)c32)CC1 [Example 27, (3aR,11aS)-6-Chloro-5-(2-(4-(2-methoxyethyl)piperazin-1-yl)ethyl)-10-methyl-1-(6-methyl-4-(trifluoromethyl)pyridin-2-yl)-1,3a,4,5,10,11a-hexahydro-2H-benzo[b]pyrrolo[2,3-f][1,4]diazocine-2,11(3H)-dione] | 1.33
Cc1cc(C(F)(F)F)cc(N2C(=O)C[C@@H]3CN(CCN4CCN(C5COC5)CC4)c4c(Cl)cccc4N(C)C(=O)[C@H]32)n1 [Example 28, (3aR,11aS)-6-Chloro-10-methyl-1-(6-methyl-4-(trifluoromethyl)pyridin-2-yl)-5-(2-(4-(oxetan-3-yl)piperazin-1-yl)ethyl)-1,3a,4,5,10,11a-hexahydro-2H-benzo[b]pyrrolo[2,3-f][1,4]diazocine-2,11(3H)-dione] | 1.97
Cc1cc(C(F)(F)F)cc(N2C(=O)C[C@@H]3CN(CCN4CC5(COC5)C4)c4c(Cl)cccc4N(C)C(=O)[C@H]32)n1 [Example 29, (3aR,11aS)-5-(2-(2-Oxa-6-azaspiro[3.3]heptan-6-yl)ethyl)-6-chloro-10-methyl-1-(6-methyl-4-(trifluoromethyl)pyridin-2-yl)-1,3a,4,5,10,11a-hexahydro-2H-benzo[b]pyrrolo[2,3-f][1,4]diazocine-2,11(3H)-dione] | 1.42
CC(=O)N1CCN(CCN2C[C@H]3CC(=O)N(c4cc(C(F)(F)F)cc(C)n4)[C@@H]3C(=O)N(C)c3cccc(Cl)c32)CC1 [Example 33, (3aR,11aS)-5-(2-(4-Acetylpiperazin-1-yl)ethyl)-6-chloro-10-methyl-1-(6-methyl-4-(trifluoromethyl)pyridin-2-yl)-1,3a,4,5,10,11a-hexahydro-2H-benzo[b]pyrrolo[2,3-f][1,4]diazocine-2,11(3H)-dione] | 1.73

Next, values leading:

Ki [nM] | SMILES
1.87 | Cc1cc(C(F)(F)F)cc(N2C(=O)C[C@@H]3CN(CCN4CCNCC4)c4c(Cl)cccc4N(C)C(=O)[C@H]32)n1 [Example 19, (3aR,11aS)-6-Chloro-10-methyl-1-(6-methyl-4-(trifluoromethyl)pyridin-2-yl)-5-(2-(piperazin-1-yl)ethyl)-1,3a,4,5,10,11a-hexahydro-2H-benzo[b]pyrrolo[2,3-f][1,4]diazocine-2,11(3H)-dione]
1.82 | Cc1cc(C(F)(F)F)cc(N2C(=O)C[C@@H]3CN(CCN4CCOCC4)c4c(Cl)cccc4N(C)C(=O)[C@H]32)n1 [Example 20, (3aR,11aS)-6-Chloro-10-methyl-1-(6-methyl-4-(trifluoromethyl)pyridin-2-yl)-5-(2-morpholinoethyl)-1,3a,4,5,10,11a-hexahydro-2H-benzo[b]pyrrolo[2,3-f][1,4]diazocine-2,11(3H)-dione]
1.48 | Cc1cc(C(F)(F)F)cc(N2C(=O)C[C@@H]3CN(CCN4CCC(F)(F)C4)c4c(Cl)cccc4N(C)C(=O)[C@H]32)n1 [Example 23, (3aR,11aS)-6-Chloro-5-(2-(3,3-difluoropyrrolidin-1-yl)ethyl)-10-methyl-1-(6-methyl-4-(trifluoromethyl)pyridin-2-yl)-1,3a,4,5,10,11a-hexahydro-2H-benzo[b]pyrrolo[2,3-f][1,4]diazocine-2,11(3H)-dione]
0.381 | Cc1cc(C(F)(F)F)cc(N2C(=O)C[C@@H]3CN(CCN4CCN(C)[C@@H](C)C4)c4c(Cl)cccc4N(C)C(=O)[C@H]32)n1 [Example 30, (3aR,11aS)-6-Chloro-5-(2-((S)-3,4-dimethylpiperazin-1-yl)ethyl)-10-methyl-1-(6-methyl-4-(trifluoromethyl)pyridin-2-yl)-1,3a,4,5,10,11a-hexahydro-2H-benzo[b]pyrrolo[2,3-f][1,4]diazocine-2,11(3H)-dione]
2.62 | Cc1cc(C(F)(F)F)cc(N2C(=O)C[C@@H]3CN(CCN4CC[C@@H](O)C4)c4c(Cl)cccc4N(C)C(=O)[C@H]32)n1 [Example 31, (3aR,11aS)-6-Chloro-5-(2-((R)-3-hydroxypyrrolidin-1-yl)ethyl)-10-methyl-1-(6-methyl-4-(trifluoromethyl)pyridin-2-yl)-1,3a,4,5,10,11a-hexahydro-2H-benzo[b]pyrrolo[2,3-f][1,4]diazocine-2,11(3H)-dione]
6.78 | Cc1cc(C(F)(F)F)cc(N2C(=O)C[C@@H]3CN(CCN4CC[C@H](O)C4)c4c(Cl)cccc4N(C)C(=O)[C@H]32)n1 [Example 32, (3aR,11aS)-6-Chloro-5-(2-((S)-3-hydroxypyrrolidin-1-yl)ethyl)-10-methyl-1-(6-methyl-4-(trifluoromethyl)pyridin-2-yl)-1,3a,4,5,10,11a-hexahydro-2H-benzo[b]pyrrolo[2,3-f][1,4]diazocine-2,11(3H)-dione]
3.82 | Cc1cc(C(F)(F)F)cc(N2C(=O)C[C@@H]3CN(CCN4CCC(O)CC4)c4c(Cl)cccc4N(C)C(=O)[C@H]32)n1 [Example 34, (3aR,11aS)-6-Chloro-5-(2-(4-hydroxypiperidin-1-yl)ethyl)-10-methyl-1-(6-methyl-4-(trifluoromethyl)pyridin-2-yl)-1,3a,4,5,10,11a-hexahydro-2H-benzo[b]pyrrolo[2,3-f][1,4]diazocine-2,11(3H)-dione]
1.09 | Cc1cc(C(F)(F)F)cc(N2C(=O)C[C@@H]3CN(CCN4CC[C@H](N(C)C)[C@H](F)C4)c4c(Cl)cccc4N(C)C(=O)[C@H]32)n1 [Example 35, (3aR,11aS)-6-Chloro-5-(2-((3R,4S)-4-(dimethylamino)-3-fluoropiperidin-1-yl)ethyl)-10-methyl-1-(6-methyl-4-(trifluoromethyl)pyridin-2-yl)-1,3a,4,5,10,11a-hexahydro-2H-benzo[b]pyrrolo[2,3-f][1,4]diazocine-2,11(3H)-dione hydrochloride]
